For assay [1], the target named is T1, WDR5 (Homo sapiens, UniProt P61964). Description: Fluorescence Polarization (FP) binding assay. The procedure, abridged:
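Displacement of fluorescein-labelled H3 (1-15) (30 nM, with 0.3 μM WDR5) or 9-Ala-FAM (20 nM, with 0.05 μM WDR5) in 80 mM sodium phosphate pH 6.5, 20 mM KCl, 0.008% Triton X-100. FP read at 485/528 nm (H3) or 480/540 nm (9-Ala-FAM); Kdisp from hyperbolic fit, mean of quadruplicates.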

Assay [2] addresses T1, WDR5. Description: Surface Plasmon Resonance (SPR) assay. Further details: Full length WDR5 with an N-terminal His tag and C-terminal AviTag; His tag (N); made in house; host or cells: E. coli. Format: binding. The following applies: read-out: SPR Kd. The procedure, abridged:
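Full-length biotinylated WDR5 (N-His, C-AviTag, E. coli) captured (~3000 RU) on streptavidin SA chip; Biacore T200. HBS-EP pH 7.4 plus 5% DMSO running buffer, 40 μl/min.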

Assay [3] deals with MV4-11 cells. Description: Cell proliferation assay (ATPlite). It counts as cell-based. The following applies: Homo sapiens, 120 h; MV4-11 cells, five days; read-out: GI MV411 EC50. The gist of the method:
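Cells seeded at 1,000/well in Alpha-MEM with 10% FBS, treated with compound over a 10-point range (top 10 μM) or DMSO. Grown five days at 37° C, 5% CO2; viability by ATPlite luminescence.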
On the technique in general: Cellular ATP, detected with luciferase, serves as a proxy for viable cell number.

Data on 14 molecules can be found in patent US20200385371A1 (Propellon Therapeutics Inc., priority 2017, published 2020).

Molecules are shown by their SMILES.

The IC50 is the concentration needed to halve the response being measured. In general, Kd refers to the equilibrium constant for the complex coming apart. In general, EC50 refers to the midpoint of the concentration-response curve.

For `C[C@H]1CN(c2ncc(-c3c(F)cc(N4CCN(C)[C@@H](C)C4)c(NC(=O)c4ccc(F)cc4C(F)F)c3F)cn2)C[C@H](C)O1` [Example 157, 2-(Difluoromethyl)-N-(3-(2-((2S,6S)-2,6-dimethylmorpholino)pyrimidin-5-yl)-6-((S)-3,4-dimethylpiperazin-1-yl)-2,4-difluorophenyl)-4-fluorobenzamide], the IC50 in assay [1] turned out to be 16.1 nM. The Kd in assay [2] worked out at 0.22 nM. For the same molecule, in assay [3], the EC50 amounted to 65.6 nM.

`CC(C)[C@@H]1CN(c2ncc(-c3c(F)cc(N4CCN(C)[C@@H](C)C4)c(NC(=O)c4c[nH]c(=O)cc4C(F)(F)F)c3F)cn2)CCO1` [Example 104, N-(6-((S)-3,4-dimethylpiperazin-1-yl)-2,4-difluoro-3-(2-((R)-2-isopropylmorpholino)pyrimidin-5-yl)phenyl)-6-oxo-4-(trifluoromethyl)-1,6-dihydropyridine-3-carboxamide]: in assay [1], the IC50 turned out to be 16.5 nM. Also, the Kd in assay [2] is 2.25 nM. For the same molecule, in assay [3], the EC50 turned out to be 20.3 nM.

As to `COc1cc(N2CCC=C(c3c(F)cc(N4CCN(C)[C@@H](C)C4)c(NC(=O)c4c[nH]c(=O)cc4C(F)F)c3F)C2)ncn1` [Example 79, (S)-4-(difluoromethyl)-N-(6-(3,4-dimethylpiperazin-1-yl)-2,4-difluoro-3-(1-(6-methoxypyrimidin-4-yl)-1,2,5,6-tetrahydropyridin-3-yl)phenyl)-6-oxo-1,6-dihydropyridine-3-carboxamide], the IC50 in assay [1] was determined as 13.6 nM. In assay [2], the Kd came out at 1.67 nM. For the same molecule, the EC50 in assay [3] was 223 nM.

On to `C[C@H]1CN(c2cc(F)c(-c3ccc(N4CCOCC4)nc3)c(F)c2NC(=O)c2ccc(F)cc2C(F)(F)F)CCN1C` [Example 174, (S)—N-(6-(3,4-dimethylpiperazin-1-yl)-2,4-difluoro-3-(6-morpholinopyridin-3-yl)phenyl)-4-fluoro-2-(trifluoromethyl)benzamide], for which, in assay [1], the IC50 was determined as 19.5 nM. Also, in assay [2], the Kd turned out to be 1.71 nM. Besides, in assay [3], the EC50 was determined as 191 nM.

As to `COc1cnc(N2CCC=C(c3c(F)cc(N4CCN(C)[C@@H](C)C4)c(NC(=O)c4c[nH]c(=O)cc4C(F)F)c3F)C2)nc1` [Example 49, (S)-4-(difluoromethyl)-N-(6-(3,4-dimethylpiperazin-1-yl)-2,4-difluoro-3-(1-(5-methoxypyrimidin-2-yl)-1,2,5,6-tetrahydropyridin-3-yl)phenyl)-6-oxo-1,6-dihydropyridine-3-carboxamide], the IC50 in assay [1] was determined as 21.7 nM. In assay [2], the Kd was 2.68 nM. Besides, in assay [3], the EC50 was found to be 332 nM.

Turning to `C[C@@H]1CN(c2ncc(-c3c(F)cc(N4CCN(C)[C@@H](C)C4)c(NC(=O)c4ccc(F)cc4C(F)F)c3F)cn2)C[C@@H](C)O1` [Example 158, 2-(Difluoromethyl)-N-(3-(2-((2R,6R)-2,6-dimethylmorpholino)pyrimidin-5-yl)-6-((S)-3,4-dimethylpiperazin-1-yl)-2,4-difluorophenyl)-4-fluorobenzamide], the IC50 in assay [1] was determined as 14 nM. For the same molecule, the Kd in assay [2] amounted to 0.43 nM. The EC50 in assay [3] was determined as 88.3 nM.

Regarding `C[C@H]1CN(c2ncc(-c3c(F)cc(N4CCN(C)[C@@H](C)C4)c(NC(=O)c4c[nH]c(=O)cc4C(F)F)c3F)cn2)C[C@H](C)O1` [Example 119, 4-(Difluoromethyl)-N-(3-(2-((2S,6S)-2,6-dimethylmorpholino)pyrimidin-5-yl)-6-((S)-3,4-dimethylpiperazin-1-yl)-2,4-difluorophenyl)-6-oxo-1,6-dihydropyridine-3-carboxamide], the IC50 in assay [1] came out at 11.7 nM. The Kd in assay [2] was determined as 0.9 nM. The EC50 in assay [3] was determined as 20.4 nM.

As to `C[C@@H]1CN(c2ncc(-c3c(F)cc(N4C[C@@H](C)N(C)[C@@H](C)C4)c(NC(=O)c4c[nH]c(=O)cc4C(F)(F)F)c3F)cn2)CCO1` [Example 128, N-(2,4-difluoro-3-(2-((R)-2-methylmorpholino)pyrimidin-5-yl)-6-((3S,5R)-3,4,5-trimethylpiperazin-1-yl)phenyl)-6-oxo-4-(trifluoromethyl)-1,6-dihydropyridine-3-carboxamide], the IC50 in assay [1] amounted to 12.8 nM. Also, in assay [2], the Kd turned out to be 0.69 nM. Further, the EC50 in assay [3] is 5.85 nM.

Turning to `CC(C)OC(=O)N1CCC=C(c2c(F)cc(N3CCN(C)[C@@H](C)C3)c(NC(=O)c3c[nH]c(=O)cc3C(F)(F)F)c2F)C1` [Example 38, Isopropyl (S)-5-(4-(3,4-dimethylpiperazin-1-yl)-2,6-difluoro-3-(6-oxo-4-(trifluoromethyl)-1,6-dihydropyridine-3-carboxamido)phenyl)-3,6-dihydropyridine-1(2H)-carboxylate], the IC50 in assay [1] was determined as 17.4 nM. In addition, the Kd in assay [2] was 16.4 nM. Also, the half-maximal effective concentration (EC50) in assay [3] amounted to 185 nM.

As for `CC(C)[C@@H]1CN(c2nccc(-c3c(F)cc(N4CCN(C)[C@@H](C)C4)c(NC(=O)c4c[nH]c(=O)cc4C(F)(F)F)c3F)n2)CCO1` [Example 123, N-(6-((S)-3,4-dimethylpiperazin-1-yl)-2,4-difluoro-3-(2-((R)-2-isopropylmorpholino)pyrimidin-4-yl)phenyl)-6-oxo-4-(trifluoromethyl)-1,6-dihydropyridine-3-carboxamide], the IC50 in assay [1] worked out at 14.9 nM. The Kd in assay [2] amounted to 1.68 nM. Moreover, the EC50 in assay [3] was 61.8 nM.

As for `C[C@@H]1CN(c2cc(F)c(C3=CCN(c4ccnc(C#N)n4)CC3)c(F)c2NC(=O)c2c[nH]c(=O)cc2C(F)(F)F)C[C@H](C)N1C` [Example 152, N-(3-(1-(2-cyanopyrimidin-4-yl)-1,2,3,6-tetrahydropyridin-4-yl)-2,4-difluoro-6-((3S,5R)-3,4,5-trimethylpiperazin-1-yl)phenyl)-6-oxo-4-(trifluoromethyl)-1,6-dihydropyridine-3-carboxamide], the IC50 in assay [1] came out at 15.3 nM. In addition, the Kd in assay [2] is 0.68 nM. In addition, the EC50 in assay [3] amounted to 24 nM.

Turning to `C[C@@H]1CN(c2ncc(-c3c(F)cc(N4C[C@@H](C)N(C)[C@@H](C)C4)c(NC(=O)c4c[nH]c(=O)cc4C(F)(F)F)c3F)cn2)C[C@H](C)O1` [Example 8, N-(3-(2-((2S,6R)-2,6-dimethylmorpholino)pyrimidin-5-yl)-2,4-difluoro-6-((3S,5R)-3,4,5-trimethylpiperazin-1-yl)phenyl)-6-oxo-4-(trifluoromethyl)-1,6-dihydropyridine-3-carboxamide], the IC50 in assay [1] came out at 21.3 nM. For the same molecule, the Kd in assay [2] stood at 0.82 nM. In assay [3], the concentration for a half-maximal effect (EC50) stood at 31 nM.

Turning to `C[C@H]1CN(c2cc(F)c(C3=CCN(c4ccnc(C#N)n4)CC3)c(F)c2NC(=O)c2c[nH]c(=O)cc2C(F)(F)F)CCN1C` [Example 112, (S)—N-(3-(1-(2-cyanopyrimidin-4-yl)-1,2,3,6-tetrahydropyridin-4-yl)-6-(3,4-dimethylpiperazin-1-yl)-2,4-difluorophenyl)-6-oxo-4-(trifluoromethyl)-1,6-dihydropyridine-3-carboxamide], in assay [1], the IC50 amounted to 15 nM. Besides, the Kd in assay [2] came to 2.4 nM. For the same molecule, the EC50 in assay [3] turned out to be 35 nM.

With `Cc1nc(C(=O)N2CC=C(c3c(F)cc(N4CCN(C)[C@@H](C)C4)c(NC(=O)c4c[nH]c(=O)cc4C(F)F)c3F)CC2)cs1` [Example 159, (S)-4-(difluoromethyl)-N-(6-(3,4-dimethylpiperazin-1-yl)-2,4-difluoro-3-(1-(2-methylthiazole-4-carbonyl)-1,2,3,6-tetrahydropyridin-4-yl)phenyl)-6-oxo-1,6-dihydropyridine-3-carboxamide], the IC50 in assay [1] came out at 13.9 nM. For the same molecule, the Kd in assay [2] stood at 2.2 nM. Besides, the EC50 in assay [3] amounted to 440 nM.
